{"source": "patent US20100298141A1", "about": "“SUBSTITUTED PYRIDINE N-OXIDE HERBICIDES” (E. I. DU PONT DE NEMOURS AND COMPANY, priority 2007, published 2010)", "key": {"[1]": {"test_system": "Goosegrass", "experiment": "Test C pre-/postemergence test", "format": "in vivo, Eleusin indica", "procedure,_shortened": "(§1)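 Compounds in a non-phytotoxic solvent with surfactant applied preemergence to seeded pots and, at the same time, postemergence to plants 2–18 cm tall (1- to 4-leaf stage). Paddy tests: pots flooded to 3 cm, compound applied into the water, depth held throughout.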"}, "[2]": {"test_system": "morningglory", "experiment": "Test A pre-/postemergence greenhouse test", "format": "in vivo, Ipomoea spp.", "settings": "for Plant response rating, Morningglory: 0 to 100 scale where 0 is no effect and 100 is complete control; for Morningglory plant response rating: 0 to 100 scale", "procedure,_shortened": "(§2)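 Greenhouse herbicide screen, pre- and postemergence in parallel. Soil: loam plus sand. Formulation: non-phytotoxic solvent mix with surfactant. Postemergence stage: one to two leaves, 2–10 cm height. Evaluation: visual injury, compared with untreated controls, about 10 days after treatment.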"}, "[3]": {"test_system": "woolly cupgrass", "experiment": "Test C pre-/postemergence test", "format": "in vivo, Eriochloa villosa", "procedure,_shortened": "as §1"}, "[4]": {"test_system": "duck salad", "experiment": "Test C flooded paddy test", "format": "in vivo, Heteranthera limosa", "settings": "Flood, scale 0 to 100, 0 no effect, 100 complete control, 13 to 15 days", "procedure,_shortened": "(§3)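 Pots were flooded to 3 cm above the soil surface at treatment, compound applied directly to the paddy water, and that depth held throughout. Plants were kept in a greenhouse for 13 to 15 days, then visually rated against untreated controls.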"}, "[5]": {"test_system": "common (oilseed) sunflower", "experiment": "Test C pre-/postemergence test", "format": "in vivo, Helianthus annuus", "procedure,_shortened": "as §1"}, "[6]": {"test_system": "crabgrass", "experiment": "Test A pre-/postemergence greenhouse test", "format": "in vivo, Digitaria sanguinalis", "settings": "for Plant response rating, Crabgrass, Large: 0 to 100 scale where 0 is no effect and 100 is complete control; for Crabgrass, Large plant response rating: 0 to 100 scale", "procedure,_shortened": "as §2"}, "[7]": {"test_system": "umbrella sedge", "experiment": "Test C flooded paddy test", "format": "in vivo, Cyperus difformis", "settings": "Flood, 250 g ai/ha; scale 0 to 100, 0 no effect, 100 complete control; 13 to 15 days", "procedure,_shortened": "as §3"}, "[8]": {"test_system": "yellow nutsedge", "experiment": "Test C pre-/postemergence test", "format": "in vivo, Cyperus esculentus", "procedure,_shortened": "as §1"}, "[9]": {"test_system": "blackgrass", "experiment": "Test C pre-/postemergence test", "format": "in vivo, Alopecurus myosuroides", "procedure,_shortened": "as §1"}, "[10]": {"test_system": "eastern black nightshade", "experiment": "Test C pre-/postemergence test", "format": "in vivo, Solanum ptycanthum", "settings": "for Nightshade plant response rating: preemergence, scale 0 (no effect) to 100 (complete control)", "procedure,_shortened": "as §1"}, "[11]": {"test_system": "Italian ryegrass", "experiment": "Test C pre-/postemergence test", "format": "in vivo, Lolium multiflorum", "procedure,_shortened": "as §1"}, "[12]": {"test_system": "wild oat", "experiment": "Test C pre-/postemergence test", "format": "in vivo, Avena fatua", "procedure,_shortened": "as §1"}, "[13]": {"test_system": "corn", "experiment": "Test C pre-/postemergence test", "format": "in vivo, Zea mays", "procedure,_shortened": "as §1"}, "[14]": {"test_system": "common ragweed", "experiment": "Test C pre-/postemergence test", "format": "in vivo, Ambrosia elation", "procedure,_shortened": "as §1"}, "[15]": {"test_system": "wheat", "experiment": "Test C pre-/postemergence test", "format": "in vivo, Triticum aestivum", "procedure,_shortened": "as §1"}, "[16]": {"test_system": "green foxtail", "experiment": "Test C pre-/postemergence test", "format": "in vivo, Setaria viridis", "procedure,_shortened": "as §1"}, "[17]": {"test_system": "redroot pigweed", "experiment": "Test A pre-/postemergence greenhouse test", "format": "in vivo, Amaranthus retroflexus", "settings": "for Plant response rating, Pigweed: 0 to 100 scale where 0 is no effect and 100 is complete control; for Pigweed plant response rating: 0 to 100 scale", "procedure,_shortened": "as §2"}, "[18]": {"settings": "62 g ai/ha, Preemergence, scale 0 to 100"}, "[19]": {"settings": "125 g ai/ha, preemergence, scale 0 (no effect) to 100 (complete control)"}, "[20]": {"settings": "Preemergence, 31 g ai/ha, scale 0 to 100 (0 no effect, 100 complete control)"}, "[21]": {"settings": "preemergence, 250 g ai/ha, scale 0 (no effect) to 100 (complete control)"}, "[22]": {"settings": "Postemergence, 500 g ai/ha, 0 is no effect, 100 is complete control"}, "[23]": {"settings": "Preemergence, 125 g ai/ha, 0 no effect, 100 complete control"}}}
{"compound": "Cn1nc(C(F)(F)F)c(C(Cl)S(=O)(=O)c2cccc[n+]2[O-])c1OC(F)F", "note": "(stereo not shown) [Compound 51]", "values": [{"measurement": "Goosegrass plant response rating", "setting": "[1]; [18]", "result": 100}, {"measurement": "Goosegrass plant response rating", "setting": "[1]; [19]", "result": 100}, {"measurement": "Plant response rating, Goosegrass", "setting": "[1]; [20]", "result": 100}, {"measurement": "Goosegrass plant response rating", "setting": "[1]; [21]", "result": 100}, {"measurement": "Plant response rating, Morningglory", "setting": "[2]; Postemergence, 125 g ai/ha", "result": 60}, {"measurement": "Morningglory plant response rating", "setting": "[2]; [22]", "result": 60}, {"measurement": "Morningglory plant response rating", "setting": "[2]; [23]", "result": 50}, {"measurement": "Plant response rating, Morningglory", "setting": "[2]; Preemergence, 500 g ai/ha", "result": 70}, {"measurement": "Cupgrass, Woolly plant response rating", "setting": "[3]; [18]", "result": 70}, {"measurement": "Cupgrass, Woolly plant response rating", "setting": "[3]; [19]", "result": 90}, {"measurement": "Plant response rating, Cupgrass, Woolly", "setting": "[3]; [20]", "result": 0}, {"measurement": "Cupgrass, Woolly plant response rating", "setting": "[3]; [21]", "result": 100}, {"measurement": "Plant response rating, Ducksalad", "setting": "[4]; 62 g ai/ha", "result": 35}, {"measurement": "Plant response rating, Ducksalad", "setting": "[4]; 250 g ai/ha", "result": 80}, {"measurement": "Sunflower plant response rating", "setting": "[5]; [18]", "result": 0}, {"measurement": "Sunflower plant response rating", "setting": "[5]; [19]", "result": 0}, {"measurement": "Plant response rating, Sunflower", "setting": "[5]; [20]", "result": 0}, {"measurement": "Sunflower plant response rating", "setting": "[5]; [21]", "result": 0}, {"measurement": "Plant response rating, Crabgrass, Large", "setting": "[6]; Postemergence, 125 g ai/ha", "result": 60}, {"measurement": "Crabgrass, Large plant response rating", "setting": "[6]; [22]", "result": 90}, {"measurement": "Crabgrass, Large plant response rating", "setting": "[6]; [23]", "result": 70}, {"measurement": "Plant response rating, Crabgrass, Large", "setting": "[6]; Preemergence, 500 g ai/ha", "result": 90}, {"measurement": "Plant response rating, Sedge, Umbrella", "setting": "[7]", "result": 95}, {"measurement": "Nutsedge, Yellow plant response rating", "setting": "[8]; [18]", "result": 40}, {"measurement": "Nutsedge, Yellow plant response rating", "setting": "[8]; [19]", "result": 40}, {"measurement": "Plant response rating, Nutsedge, Yellow", "setting": "[8]; [20]", "result": 0}, {"measurement": "Nutsedge, Yellow plant response rating", "setting": "[8]; [21]", "result": 100}, {"measurement": "Blackgrass plant response rating", "setting": "[9]; [18]", "result": 90}, {"measurement": "Blackgrass plant response rating", "setting": "[9]; [19]", "result": 90}, {"measurement": "Plant response rating, Blackgrass", "setting": "[9]; [20]", "result": 80}, {"measurement": "Blackgrass plant response rating", "setting": "[9]; [21]", "result": 100}, {"measurement": "Nightshade plant response rating", "setting": "[10]; 125 g ai/ha", "result": 85}, {"measurement": "Plant response rating, Nightshade", "setting": "[10]; [20]", "result": 0}, {"measurement": "Nightshade plant response rating", "setting": "[10]; 250 g ai/ha", "result": 100}, {"measurement": "Ryegrass, Italian plant response rating", "setting": "[11]; [18]", "result": 30}, {"measurement": "Ryegrass, Italian plant response rating", "setting": "[11]; [19]", "result": 80}, {"measurement": "Plant response rating, Ryegrass, Italian", "setting": "[11]; [20]", "result": 0}, {"measurement": "Ryegrass, Italian plant response rating", "setting": "[11]; [21]", "result": 80}, {"measurement": "Oat, Wild plant response rating", "setting": "[12]; [18]", "result": 0}, {"measurement": "Oat, Wild plant response rating", "setting": "[12]; [19]", "result": 10}, {"measurement": "Plant response rating, Oat, Wild", "setting": "[12]; [20]", "result": 0}, {"measurement": "Oat, Wild plant response rating", "setting": "[12]; [21]", "result": 50}, {"measurement": "Corn plant response rating", "setting": "[13]; [18]", "result": 0}, {"measurement": "Corn plant response rating", "setting": "[13]; [19]", "result": 50}, {"measurement": "Plant response rating, Corn", "setting": "[13]; [20]", "result": 0}, {"measurement": "Corn plant response rating", "setting": "[13]; [21]", "result": 50}, {"measurement": "Ragweed plant response rating", "setting": "[14]; [18]", "result": 0}, {"measurement": "Ragweed plant response rating", "setting": "[14]; [19]", "result": 30}, {"measurement": "Plant response rating, Ragweed", "setting": "[14]; [20]", "result": 0}, {"measurement": "Ragweed plant response rating", "setting": "[14]; [21]", "result": 85}, {"measurement": "Wheat plant response rating", "setting": "[15]; [18]", "result": 10}, {"measurement": "Wheat plant response rating", "setting": "[15]; [19]", "result": 20}, {"measurement": "Plant response rating, Wheat", "setting": "[15]; [20]", "result": 5}, {"measurement": "Foxtail, Green plant response rating", "setting": "[16]; [18]", "result": 85}, {"measurement": "Foxtail, Green plant response rating", "setting": "[16]; [19]", "result": 85}, {"measurement": "Plant response rating, Foxtail, Green", "setting": "[16]; [20]", "result": 65}, {"measurement": "Foxtail, Green plant response rating", "setting": "[16]; [21]", "result": 100}, {"measurement": "Plant response rating, Pigweed", "setting": "[17]; Postemergence, 125 g ai/ha", "result": 60}, {"measurement": "Pigweed plant response rating", "setting": "[17]; [22]", "result": 70}, {"measurement": "Pigweed plant response rating", "setting": "[17]; [23]", "result": 100}, {"measurement": "Plant response rating, Pigweed", "setting": "[17]; Preemergence, 500 g ai/ha", "result": 100}]}
